The results in this text go back to patent US5124319A, “Benzimidazole phosphono-amino acids” (American Home Products Corporation, priority 1991, dated 1992).

Each structure is given as a SMILES string. Counter-ions that a name gives are not always drawn. Like-named read-outs stand apart in the source and are kept apart here.

The target of assay [1] is NMDA receptor. Kind of assay: [3H]CPP binding assay (displacement of tritiated CPP in rat frontal cortex homogenates). The following applies: [3H]CPP 8 nM, 23° C., 15 min, pH 7.6. Here is the method:
The compounds of the invention are tested for their NMDA competitive antagonist activity by their ability to displace tritiated 3-(2-carboxypiperazine-4-yl)propyl-1-phosphonic acid (CPP), a known competitive NMDA antagonist, in rat frontal cortex homogenates in the in vitro [^3 H]CPP binding assay.
Rats are decapitated and their brains are immediately removed, weighed and placed in approximately 15 volumes of ice cold 10% sucrose. Each brain is homogenized using a Potter Elvehjem glass homogenizer (12 strokes at 840 rpm) equipped with a Teflon pestle. The homogenate is then centrifuged at 1,000×g. for 10 minutes. The resulting pellet is discarded and the supernatant is centrifuged at 20,000×g. for 20 minutes. The crude mitochondrial pellet is resuspended in ice cold distilled water and dispersed using a Brinkmann Polytron (PT-10 at setting of 6 for 30 seconds). The suspension is centrifuged at 8,000×g. for 20 minutes. The resulting supernatant and buffy coat is centrifuged at 48,000×g.for 20 minutes. The final crude synaptic membrane pellet is resuspended in ice cold distilled water and centrifuged at 48,000×g. for 20 minutes.
To facilitate removal of endogenous glutamate, the membranes are resuspended in 15 volumes of ice cold 50 mMolar TRIS (pH 7.6) containing 0.04% Triton X-100. The suspension is incubated at 37° C. for 15 minutes, and then centrifuged at 20,000×g. for 20 minutes. The pellet is washed (i.e., resuspended in ice cold TRIS buffer and centrifuged at 20,000×g. for 20 minutes) twice. The membrane pellet is finally resuspended in 15 volumes ice cold 50 mMolar TRIS, distributed to several centrifuge tubes and centrifuged at 20,000×g. for 20 minutes and the pellets are frozen (-70° C.) for subsequent use in binding assays.
For the binding assay, the membrane pellets are thawed and resuspended in 15 volumes ice cold 50 mMolar TRIS (pH 7.6) buffer. Triplicate samples (1000 μl) of the membrane suspension containing between 0.2 and 0.4 mg protein/ml are incubated at 23° C. for 15 minutes with 8 nM [^3 H]CPP (New England Nuclear), one of various test solutions, and buffer in a final incubation volume of 2 ml using plastic minivials (Skatron). The samples are then centrifuged at 48,000×g. for 20 minutes and the supernatants discarded. The pellets are digested with tissue solubilizer (NCS, Amersham; 500 μl/sample) for 1 hour. Hydrochloric acid (100 μl of 4N) is added to each sample to reduce chemiluminescence during subsequent counting. Scintillation cocktail (Aqasol, DuPont; 3.2 ml) is added to each of the minivials which are then capped and shaken for 15 minutes prior to counting. The vials are placed into a Packard 460 CD (or equivalent) counter for determination of radioactivity.
Total specific binding is defined as total binding less the binding in the presence of 1 mMolar NMDA. Specific binding in the presence of a test drug is expressed as a percent of total specific binding when no drug is present. When test compounds are examined for a dose-response relationship, the results are then plotted as the logit of % binding vs. the log of the test drug concentration. Linear regression analysis then yields a straight line from which an IC50 with 95% confidence limits can be calculated.

In assay [2] the test system is NMDA-induced convulsions. Kind of assay: murine NMDA-induced convulsion assay (survival). The assay is classed as in vivo, mice (male Swiss-albino, CD-1 strain). The conditions noted are these: for ED50: Mus musculus, ip, 0.5 h. Here is the method: The compounds of the invention are further tested for their in vivo ability to antagonize NMDA in the murine NMDA-induced convulsion assay.
Male Swiss-albino mice (CD-1 strain, Charles River) 18-22 grams in weight, after 18 hours of food deprivation, are habituated to an observation chamber for 30 minutes. The mice are pretreated with the representative test compound followed thirty minutes later with NMDA, 195 mg/kg, i.p., which is a dose normally causing 90% mortality resulting from motor seizures including uncontrollable hind leg scratching or limbs and/or torso muscle jerking with loss of righting reflex followed by death within the 30 minute observation period after NMDA administration. From the latter, the ED50 for survival is determined.
Data analyzed using the probit analysis program PS-NONLIN (Natural Response Rate Version). The output of this program contains the statistical significance of the slope of the dose-response and the ED 50% and 95% confidence limits for survival.

[3] abbreviates: standard compounds, read-out: IC50 ± S.E.M.
Setting [4] is: reference compounds, i.p., 30 min before NMDA 195 mg/kg i.p., 95% confidence interval, read-out: ED50 % for survival.
Where [5] appears, read: compounds of the invention, read-out: IC50.
Where [6] appears, read: compounds of the invention, i.p., 30 min before NMDA 195 mg/kg i.p., read-out: ED50 (survival).

As a reminder, the IC50 is the midpoint of a concentration-inhibition curve. A word on the ED50: it is the dose that gives a 50% effect, or the effect in half of the subjects.

For `NC(CCCCCP(=O)(O)O)C(=O)O` (centres unmarked) [AP7, reference compound], the IC50 in assay [1] (setting [3]) turned out to be 639 ± 129 nM.
Turning to `O=C(O)C1CN(CCCP(=O)(O)O)CCN1` (centres unmarked) [CPP, 3-(2-carboxypiperazine-4-yl)propyl-1-phosphonic acid, reference compound], the ED50 in assay [2] (setting [4]) amounted to 1.04 mg/kg.
For `CN1C(=O)CN=C(c2ccccc2)c2cc(Cl)ccc21` [Diazepam, reference compound], the median effective dose (ED50) in assay [2] (setting [4]) turned out to be 1.91 mg/kg.
With `Cl.Cl.N[C@H](Cc1nc2ccccc2n1CP(=O)(O)O)C(=O)O.O.O` [Example 1, R-α-Amino-1-(phosphonomethyl)-1H-benzimidazole-2-propanoic acid, dihydrochloride, dihydrate], in assay [1] (setting [5]), the IC50 was 59 nM. Also, the median effective dose (ED50) in assay [2] (read-out: ED50 (survival)) is 2 mg/kg.
On the same counts, the results for `Cl.Cl.N[C@H](Cc1nc2cc(Cl)c(Cl)cc2n1CP(=O)(O)O)C(=O)O` [Example 2, R-α-Amino-5,6-dichloro-1-(phosphonomethyl)-1H-benzimidazole-2-propanoic acid, dihydrochloride] are 18.2 nM and 2.7 mg/kg.
In the case of `Cc1cc2nc(C[C@@H](N)C(=O)O)n(CP(=O)(O)O)c2cc1C.Cl.Cl` [Example 3, R-α-Amino-5,6-dimethyl-1-(phosphonomethyl)-1H-benzimidazole-2-propanoic acid, dihydrochloride], the IC50 in assay [1] (setting [5]) amounted to 123 nM. In addition, the “% survival” value in assay [2] (3 mg/kg, 30 min before NMDA 195 mg/kg i.p.) is on record as 10%.
As to `N[C@H](Cc1nc2ccc(Cl)cc2n1CP(=O)(O)O)C(=O)O` [Example 7, R-α-Amino-6-chloro-1-(phosphonomethyl)-1H-benzimidazole-2-propanoic acid, 0.8 hydrochloride, hydrate], in assay [1] (setting [5]), the IC50 is 21.7 nM. Moreover, the ED50 in assay [2] (setting [6]) is below 5 mg/kg.
As to `Cl.N[C@H](Cc1nc2cc(Cl)ccc2n1CP(=O)(O)O)C(=O)O` [Example 8, R-α-Amino-5-chloro-1-(phosphonomethyl)-1H-benzimidazole-2-propanoic acid hydrochloride], the IC50 in assay [1] (setting [5]) came out at 7 nM. Besides, the ED50 in assay [2] (read-out: ED50 (survival)) was 0.13 mg/kg.
As for `N[C@@H](Cc1nc2cc(Cl)c(Cl)cc2n1CP(=O)(O)O)C(=O)O` [Example 9, S-α-Amino-5,6-dichloro-1-(phosphonomethyl)-1H-benzimidazole-2-propanoic acid, dihydrate], the IC50 in assay [1] (setting [5]) turned out to be 1010 nM. The ED50 in assay [2] (setting [6]) is above 10 mg/kg.
Turning to `N[C@@H](CCC(=O)O)C(=O)O` [L. Glutamic Acid, reference compound], the IC50 in assay [1] (setting [3]) came out at 64.3 ± 4.7 nM.
In the case of `C[C@]12N[C@H](Cc3ccccc31)c1ccccc12` [MK-801, reference compound], in assay [2] (setting [4]), the ED50 is 0.19 mg/kg.
